Legend:
GABA production = experiment: Synthesis of GABA in vitro (conversion of glutamate to GABA in culture); format: cell-based, Lactiplantibacillus plantarum; settings: cultures grown under anaerobic conditions at ~37° C. for 48 hours; data not shown
Description: The Lactiplantibacillus plantarum Lp815 strain was assessed for its ability to convert glutamate to GABA in vitro. Overnight, stationary phase cultures (16-18 h) of L. plantarum Lp815 were used to inoculate 3 mL of fresh media at an optical density of ~0.05 as measured at 600 nm by a spectrophotometer (OD600). Multiple media types can be used, including rich media (e.g., MRS broth) or minimal media supplemented with the necessary components to support growth. The media can further be supplemented with L (+)-glutamic acid or a salt thereof and/or piperazine-N,N′-bis(2-ethanesulfonic acid) (PIPES). Cultures were grown under anerobic conditions at ~37° C. for 48 hours.

healthy adults = experiment: Urine GABA and 5-HIAA levels in human participants after Lp815 supplementation; format: in vivo; settings: week 4, 1×10^9 cfu/day for 4 weeks
Description: The Lactiplantibacillus plantarum Lp815 strain was assessed for its ability to increase GABA levels in human participants. Eight healthy adults (5 female, 3 male) provided a urine sample at baseline (T=0). Urine was analyzed for GABA and 5-HIAA levels using the Neurotransmitter Basic Panel (available from Life Extension/National Diagnostics, Inc.). 5-HIAA is a metabolite of serotonin and indicative of serotonin levels in a subject. Participants with GABA levels in the high range at baseline ([…] GABA) were excluded from the study. Participants proceeded to take the Lp815 probiotic at 1×10^9 cfu/day for 4 weeks. Participants refrained from beginning any new treatments, using antibiotics, or taking any additional probiotic products.
After 4 weeks of supplementation, a second urine sample was collected and GABA levels measured. […] Additionally, levels of 5-HIAA were increased by approximately 10% at week 4 relative to baseline (FIG. 1B).

[1] = test system: Participants with self-reported mild to moderate anxiety; experiment: Double blind, randomized, placebo-controlled study of GAD-7 generalized anxiety scores; format: in vivo, human; settings: 1×10^9 CFU or 5×10^9 CFU daily; weeks 2, 4, and 6; FIG. 2
Description: A double blind, randomized, placebo-controlled study was conducted to assess the impact of Lactiplantibacillus plantarum Lp815 on generalized anxiety scores. Participants with self-reported mild to moderate anxiety as measured by the GAD-7 questionnaire were enrolled in a six week trial. Participants with severe anxiety were excluded.
The GAD-7 questionnaire is a self-reported questionnaire that assesses anxiety levels based on 7 questions as measured over the last two weeks: 1) feeling nervous, anxious, or on edge, 2) not being able to stop or control worrying, 3) worrying too much about different things, 4) trouble relaxing, 5) being so restless that it is hard to sit still, 6) becoming easily annoyed or irritable, and 7) feeling afraid as if something awful might happen. For each question, a score of 0 (not at all), 1 (several days), 2 (more than half the days), or 3 (nearly every day) is assigned. The total score is a sum across the seven questions. A total score of 0-4 indicates minimal anxiety, 5-9 indicates mild anxiety, 10-14 indicates moderate anxiety, and 15-21 indicates severe anxiety.
Participants were divided into either placebo, 1×10^9 CFU daily of Lp815 or 5×10^9 CFU daily of Lp815. The GAD-7 questionnaire was administered at baseline, 2 weeks, 4 weeks and 6 weeks following supplementation.

Lactiplantibacillus plantarum Lp815
GABA production (GABA production): increase in GABA production | GABA levels increase relative to baseline (healthy adults; FIG. 1A): approximately 20% | levels of 5-HIAA increase relative to baseline (healthy adults; FIG. 1B): approximately 10% | decrease in GAD-7 scores relative to baseline [1]: 10-15 points
